Test results: ChEMBL document CHEMBL1131861, “Antitumor agents 200. Cytotoxicity of naturally occurring resveratrol oligomers and their acetate derivatives” (1999)
Converted amounts (≈) assume the structure as drawn. The source made the active and inactive calls. The rule behind the calls is not given here.

Legend:
1A9 [1] = assay: Percentage inhibition of human ovarian cancer (1A9) cell lines.; format: functional
KB [2] = assay: Cytotoxicity against human epidermoid carcinoma of the nasopharynx(KB) cell lines.; format: functional; settings: read-out: ED50 (the source's name)
A549 [3] = assay: Cytotoxicity against human lung carcinoma (A549) cell lines; format: functional; settings: read-out: ED50 (the source's name)
1A9 [4] = assay: Cytotoxicity against human ovarian cancer (1A9) cell lines.; format: functional; settings: read-out: ED50 (the source's name)
A549 [5] = assay: Percentage inhibition of human lung carcinoma (A549) cell lines; format: functional
MCF7 [6] = assay: Cytotoxicity against human breast cancer(MCF-7) cell lines.; format: functional; settings: read-out: ED50 (the source's name)
MCF7 [7] = assay: Percentage inhibition of human breast cancer(MCF-7) cell lines.; format: functional
CAKI-1 [8] = assay: Cytotoxicity against human renal cancer(CAKI-1) cell lines; format: functional; settings: read-out: ED50 (the source's name)
SAOS-2 [9] = assay: Cytotoxicity against human osteosarcoma (SaOS-2) cell lines.; format: functional; settings: read-out: ED50 (the source's name)
SAOS-2 [10] = assay: Percentage inhibition of human osteosarcoma (SaOS-2) cell lines.; format: functional
CAKI-1 [11] = assay: Percentage inhibition of human renal cancer(CAKI-1) cell lines; format: functional
KB [12] = assay: Percentage inhibition of human epidermoid carcinoma of the nasopharynx(KB) cell lines.; format: functional
HCT-8 [13] = assay: Cytotoxicity against human ileocecal carcinoma (HCT-8) cell lines.; format: functional; settings: read-out: ED50 (the source's name)
A549 [14] = assay: Cytotoxicity against human lung carcinoma (A549) cell lines; Not active; format: functional, cell-based
HCT-8 [15] = assay: Percentage inhibition human ileocecal carcinoma (HCT-8) cell lines.; format: functional
CAKI-1 [16] = assay: Cytotoxicity against human renal cancer(CAKI-1) cell lines; […]; format: functional, cell-based

`Oc1ccc([C@H]2c3c(O)cc(O)cc3[C@H]3c4c(cc(O)cc4[C@@H]2O)O[C@@H]3c2ccc(O)cc2)cc1` [AMPELOPSIN A] showed an Inhibition (1A9 [1]) of 32%, an EC50 (KB [2]) greater than 20 µg/mL and an EC50 (A549 [3]) greater than 20 µg/mL. It also gave an EC50 (1A9 [4]) greater than 20 µg/mL, an Inhibition (A549 [5]) of 7% and an EC50 (MCF7 [6]) greater than 20 µg/mL. The Inhibition (MCF7 [7]) was 10%, the EC50 (CAKI-1 [8]) was greater than 20 µg/mL and the EC50 (SAOS-2 [9]) was greater than 20 µg/mL. The Inhibition (SAOS-2 [10]) was 8%, the Inhibition (CAKI-1 [11]) was 38% and the Inhibition (KB [12]) was 38%.

In the case of `CC(=O)Oc1ccc([C@@H]2c3c(OC(C)=O)cc(OC(C)=O)cc3[C@H]3[C@H](c4ccc(OC(C)=O)cc4)c4c(OC(C)=O)cc(OC(C)=O)cc4[C@@H]23)cc1`, the EC50 (HCT-8 [13]) is reported as 8 µg/mL (≈ 11.3 µM), the EC50 (KB [2]) is reported as 1.6 µg/mL (≈ 2.26 µM) and the EC50 (1A9 [4]) is reported as 3.2 µg/mL (≈ 4.53 µM). For the same compound, the EC50 (MCF7 [6]) was 7.4 µg/mL (≈ 10.5 µM), the EC50 (CAKI-1 [8]) was 8 µg/mL (≈ 11.3 µM) and the ED50 (A549 [14]) was “inactive”.

For `CC(=O)Oc1ccc([C@@H]2c3c(OC(C)=O)cc(OC(C)=O)cc3[C@@H]3c4c(OC(C)=O)cc(OC(C)=O)cc4C2[C@H]3c2ccc(OC(C)=O)cc2)cc1`, the EC50 (HCT-8 [13]) was greater than 10 µg/mL, the EC50 (KB [2]) was 3 µg/mL (≈ 4.25 µM) and the EC50 (1A9 [4]) was 6 µg/mL (≈ 8.49 µM). It also gave an Inhibition (HCT-8 [15]) of 36%, an EC50 (MCF7 [6]) greater than 10 µg/mL and an Inhibition (MCF7 [7]) of 43%. For the same compound, the EC50 (CAKI-1 [8]) was greater than 10 µg/mL, the ED50 (A549 [14]) was “inactive” and the Inhibition (CAKI-1 [11]) was 21%.

For `Oc1ccc([C@@H]2c3c(O)cc(O)cc3[C@@H]3c4c(cc(O)cc4[C@H]2[C@@H]2c4cc(O)cc5c4[C@@H](c4cc(O)cc(O)c4[C@H]2c2ccc(O)cc2)[C@H](c2ccc(O)cc2)O5)O[C@H]3c2ccc(O)cc2)cc1`, the EC50 (KB [2]) was 1.2 µg/mL (≈ 1.32 µM), the EC50 (A549 [3]) was 4.8 µg/mL (≈ 5.29 µM) and the EC50 (1A9 [4]) was 7.8 µg/mL (≈ 8.6 µM). For the same compound, the EC50 (MCF7 [6]) was 4.2 µg/mL (≈ 4.63 µM), the ED50 (CAKI-1 [16]) was “inactive” and the EC50 (SAOS-2 [9]) was greater than 20 µg/mL. The Inhibition (SAOS-2 [10]) was 41%.

Work on `CC(=O)Oc1ccc([C@H]2c3c(OC(C)=O)cc(OC(C)=O)cc3[C@H]3c4c(cc(OC(C)=O)cc4[C@@H]2OC(C)=O)O[C@@H]3c2ccc(OC(C)=O)cc2)cc1` yielded an EC50 (HCT-8 [13]) of 4.1 µg/mL (≈ 5.67 µM), an EC50 (KB [2]) of 0.6 µg/mL (≈ 0.83 µM) and an EC50 (1A9 [4]) of 0.7 µg/mL (≈ 0.969 µM). The EC50 (MCF7 [6]) was 2 µg/mL (≈ 2.77 µM), the EC50 (CAKI-1 [8]) was 4 µg/mL (≈ 5.53 µM) and the ED50 (A549 [14]) was “inactive”.

`CC(=O)Oc1ccc(/C=C/c2cc(OC(C)=O)cc3c2[C@H](c2cc(OC(C)=O)cc(OC(C)=O)c2)[C@@H](c2ccc(OC(C)=O)cc2)O3)cc1` was tested, and the EC50 (KB [2]) was 7.5 µg/mL (≈ 11.3 µM), the EC50 (A549 [3]) was 20 µg/mL (≈ 30.1 µM) and the EC50 (1A9 [4]) was 5.8 µg/mL (≈ 8.73 µM). For the same compound, the EC50 (MCF7 [6]) was 4 µg/mL (≈ 6.02 µM), the ED50 (CAKI-1 [16]) was “inactive” and the EC50 (SAOS-2 [9]) was 7.5 µg/mL (≈ 11.3 µM).
